Assay results: EP2818471A1, “Nitrogen bicyclic compounds as inhibitors for Scyl1 and Grk5” (Max-Planck-Gesellschaft zur Förderung der Wissenschaften …, priority 2013, dated 2014)

Tested on: beta-TC6 cells
Assay: Insulin HTRF assay, relative activity Ar normalized to sunitinib
Format: cell-based
Settings: Mus musculus, normalized to positive control sunitinib (5 µM = 100%), Table 10
Text: For further screening of compounds derived from compounds described above for their ability to regulate insulin release an insulin HTRF® (Homogeneous Time-Resolved Fluorescence; Cisbio International, France) was used. This assay is based on two antibodies against insulin binding to different epitopes of insulin. One of these antibodies is coupled to Europium (Ab-Eu-Cryptate) and the other one to the fluorophore XL665 (Ab-XL665). Is insulin secreted into the supernatant of cell culture both antibodies can bind to insulin and come therefore into close proximity which allows upon excitation that energy transfer between (FRET) the long-life fluorescent donor Europium (cryptate) and the acceptors XL665. FRET increases proportionally with insulin concentration.
The automated assay protocol is as follows: • On day 1 15k beta-TC6 cells per well were seeded for 24 or 48 h in 50 µl complete medium. On day 2 or respective on day 3 the medium is removed and cells are washed with 60 µl 1xPBS and 20 µl induction buffer is added using BioTek washer. Subsequently, 10 µl Sunitininb (5 µM f.c.) or the test compound in induction buffer; 0.5% f.c. DMSO (CyBi-well) is transferred to the cells. The cells are then incubated at 37°C for 2, 3, 4h.
The HTRF assay is carried out using Greiner 384-well 784075 assay plates. First 10 µl supernatant is transferred from the cell plates in HTRF plates (CyBi-well). 10 µl of 0, 1, 2, and 4 ng/ml Insulin standard controls in assay medium is used as a control. To each well 10 µl of combined 1:25 Ab-XL665 (Acc) and 1:20 Ab-Eu-Cryptate (WellMate) are added and incubated for 120 min at RT in the dark. Finally HTRF is measured on ViewLux ultra high throughput microplate imager (PerkinElmer).
The evaluation software DataFactoty derives relative activities Ar according to the following equation: Ar = (V-R(0%control))/(R(100%control) -R(0%control)) × 100 [formula] […]
The activity of the compounds was classified according to their Ar (relative activity) into the following ranges: Ar ≥ 100% + + + +; 50% ≤ Ar < 100% + + +; 20% ≤ Ar < 50% + +; 10% < Ar < 20% + [formula] Table 10. Ar (relative activity) values of inventive compounds

`COc1cc(-c2cnc3cnc(-c4ccc(N)nc4)cn23)ccc1O` [compound 396, 4-[6-(6-amino-3-pyridyl)imidazo[1,2-a]pyrazin-3-yl]-2-methoxy-phenol] and `COc1ccc(-c2cn3c(-c4cccc(O)c4)cnc3cn2)cn1` [compound 369, 3-[6-(6-methoxy-3-pyridyl)imidazo[1,2-a]pyrazin-3-yl]phenol] fall in the same range of Emax: 20 to 50% for the first, 20 to 50% for the second.

`Cn1cc(-c2cnc3cnc(-c4ccncc4)cn23)cn1` [compound 438, 3-(1-methylpyrazol-4-yl)-6-(4-pyridyl)imidazo[1,2-a]pyrazine] and `CN(C)c1cccc(-c2cnc3cnc(-c4ccncc4)cn23)c1` [compound 342, N,N-dimethyl-3-[6-(4-pyridyl)imidazo[1,2-a]pyrazin-3-yl]aniline] fall in the same range of Emax: 20 to 50% for the first, 20 to 50% for the second.

First: CC(=O)Nc1cccc(-c2ccc3nnc(-c4ccc5nccnc5c4)n3c2)c1 [compound 241, N-[3-(3-quinoxalin-6-yl-[1,2,4]triazolo[4,3-a]pyridin-6-yl)phenyl]acetamide]
Second: Oc1cccc(-c2nnc3ccc(-c4cccc5ncccc45)cn23)c1 [compound 209, 3-[6-(5-quinolyl)-[1,2,4]triazolo[4,3-a]pyridin-3-yl]phenol]
The Emax of the first is higher: 50 to 100% for the first, 20 to 50% for the second.

First: NC(=O)c1ccc(-c2cnc3ccc(Cc4ccc(F)c(F)c4)nn23)cc1 [compound 145, 4-[6-[(3,4-difluorophenyl)methyl]imidazo[1,2-b]pyridazin-3-yl]benzamide]
Second: CS(=O)(=O)c1ccc(-c2cnc3ccc(Cc4ccccc4)nn23)cc1 [compound 119, 6-benzyl-3-(4-methylsulfonylphenyl)imidazo[1,2-b]pyridazine]
The Emax of the first is higher: 20 to 50% for the first, 10 to 20% for the second.

`COc1cccc(-c2ccc3nnc(-c4cscn4)n3c2)c1` [compound 234, 4-[6-(3-methoxyphenyl)-[1,2,4]triazolo[4,3-a]pyridin-3-yl]thiazole] and `FC(F)(F)Oc1cccc(-c2nnc3ccc(-c4cccs4)cn23)c1` [compound 195, 6-(2-thienyl)-3-[3-(trifluoromethoxy)phenyl]-[1,2,4]triazolo[4,3-a]pyridine] fall in the same range of Emax: 50 to 100% for the first, 50 to 100% for the second.

Compared with `CC(C)[C@@H](CO)Nc1ccc2ncc(-c3ccc(N)cc3)n2n1` [compound 5, (2S)-2-[[3-(4-aminophenyl)imidazo[1,2-b]pyridazin-6-yl]amino]-3-methyl-butan-1-ol], `COc1ccc(-c2cnc3ccc(NCCCO)nn23)cc1` [compound 41, 3-[[3-(4-methoxyphenyl)imidazo[1,2-b]pyridazin-6-yl]amino]propan-1-ol] is lower in Emax: 50 to 100% for the first, 10 to 20% for the second.

`c1cc2c(cc1CNc1ccc3ncc(-c4ccc(N5CCOCC5)cc4)n3n1)OCO2` [compound 26, N-(1,3-benzodioxol-5-ylmethyl)-3-(4-morpholinophenyl)imidazo[1,2-b]pyridazin-6-amine] and `c1ccc(-c2ccc3ncc(-c4ccc5c(c4)OCO5)n3n2)cc1` [compound 101, 3-(1,3-benzodioxol-5-yl)-6-phenyl-imidazo[1,2-b]pyridazine] fall in the same range of Emax: 20 to 50% for the first, 20 to 50% for the second.

First: CSc1ccc(-c2cnc3cccnn23)cc1 [compound 72, 3-(4-methylsulfanylphenyl)imidazo[1,2-b]pyridazine]
Second: O=C(O)CCc1ccc(-c2cnc3cnc(-c4cccs4)cn23)cc1 [compound 332, 3-[4-[6-(2-thienyl)imidazo[1,2-a]pyrazin-3-yl]phenyl]propanoic acid]
The Emax of the first is lower: 10 to 20% for the first, 20 to 50% for the second.

`c1coc(-c2cn3c(-c4ccsc4)cnc3cn2)c1` [compound 319, 6-(2-furyl)-3-(3-thienyl)imidazo[1,2-a]pyrazine] and `COc1cc(OC)cc(-c2cn3c(-c4ccsc4)cnc3cn2)c1` [compound 323, 6-(3,5-dimethoxyphenyl)-3-(3-thienyl)imidazo[1,2-a]pyrazine] fall in the same range of Emax: 20 to 50% for the first, 20 to 50% for the second.

Compared with `Cc1cc(-c2cn3c(-c4ccncc4)cnc3cn2)cc(C)c1O` [compound 312, 2,6-dimethyl-4-[3-(4-pyridyl)imidazo[1,2-a]pyrazin-6-yl]phenol], `CN(C)c1ccc(-c2cnc3cnc(-c4ccc(CO)cc4)cn23)cc1` [compound 287, [4-[3-(4-dimethylaminophenyl)imidazo[1,2-a]pyrazin-6-yl]phenyl]methanol] is higher in Emax: 20 to 50% for the first, 50 to 100% for the second.

Compared with `CC(C)N1CCN(c2ccc(-c3cn4c(-c5ccc(O)cc5)cnc4cn3)cc2)CC1` [compound 325, 4-[6-[4-(4-isopropylpiperazin-1-yl)phenyl]imidazo[1,2-a]pyrazin-3-yl]phenol], `CN(C)CCNC(=O)c1ccc(-c2cn3c(-c4ccc(N(C)C)cc4)cnc3cn2)cc1` [compound 289, N-(2-dimethylaminoethyl)-4-[3-(4-dimethylaminophenyl)imidazo[1,2-a]pyrazin-6-yl]benzamide] is higher in Emax: 20 to 50% for the first, 50 to 100% for the second.

`Fc1cccc(-c2cnc3cnc(-c4ccccc4)cn23)c1` [compound 385, 3-(3-fluorophenyl)-6-phenyl-imidazo[1,2-a]pyrazine] and `Fc1cccc(-c2cnc3cnc(-c4cccs4)cn23)c1` [compound 390, 3-(3-fluorophenyl)-6-(2-thienyl)imidazo[1,2-a]pyrazine] fall in the same range of Emax: 20 to 50% for the first, 20 to 50% for the second.

First: FC(F)(F)Oc1cccc(-c2nnc3ccc(C#Cc4ccccc4)cn23)c1 [compound 196, 6-(2-phenylethynyl)-3-[3-(trifluoromethoxy)phenyl]-[1,2,4]triazolo[4,3-a]pyridine]
Second: COc1ccccc1-c1ccc2ncc(-c3cccc(OC(F)(F)F)c3)n2n1 [compound 115, 6-(2-methoxyphenyl)-3-[3-(trifluoromethoxy)phenyl]imidazo[1,2-b]pyridazine]
The Emax of the first is higher: 20 to 50% for the first, 10 to 20% for the second.

`Nc1ccc(-c2cn3c(-c4cccs4)cnc3cn2)cn1` [compound 427, 5-[3-(2-thienyl)imidazo[1,2-a]pyrazin-6-yl]pyridin-2-amine] and `COc1cc(-c2cn3c(-c4ccccc4Cl)cnc3cn2)ccc1O` [compound 406, 4-[3-(2-chlorophenyl)imidazo[1,2-a]pyrazin-6-yl]-2-methoxy-phenol] fall in the same range of Emax: 20 to 50% for the first, 20 to 50% for the second.

`c1ccc(-c2nnc3ccc(-c4ccc5c(c4)OCO5)cn23)cc1` [compound 164, 6-(1,3-benzodioxol-5-yl)-3-phenyl-[1,2,4]triazolo[4,3-a]pyridine] and `CS(=O)(=O)Nc1cccc(-c2ccc3nnc(-c4ccccc4)n3c2)c1` [compound 169, N-[3-(3-phenyl-[1,2,4]triazolo[4,3-a]pyridin-6-yl)phenyl]methanesulfonamide] fall in the same range of Emax: 50 to 100% for the first, 50 to 100% for the second.

`Cc1ccccc1-c1cn2c(-c3ccc(CCC(=O)O)cc3)cnc2cn1` [compound 330, 3-[4-[6-(o-tolyl)imidazo[1,2-a]pyrazin-3-yl]phenyl]propanoic acid] and `Nc1ccc(-c2cn3c(NC(=O)c4ccccc4)cnc3cn2)cc1` [compound 269, N-[6-(4-aminophenyl)imidazo[1,2-a]pyrazin-3-yl]benzamide] fall in the same range of Emax: 20 to 50% for the first, 20 to 50% for the second.

First: Oc1cccc(-c2cnc3cnc(/C=C/c4ccccc4)cn23)c1 [compound 366, 3-[6-[(E)-styryl]imidazo[1,2-a]pyrazin-3-yl]phenol]
Second: Clc1cccc(-c2cn3c(-c4ccc5c(c4)OCO5)cnc3cn2)c1 [compound 303, 3-(1,3-benzodioxol-5-yl)-6-(3-chlorophenyl)imidazo[1,2-a]pyrazine]
The Emax of the first is lower: 20 to 50% for the first, 50 to 100% for the second.
